In PMC6105804, “In Vitro and In Vivo Evaluation of APX001A/APX001 and Other Gwt1 Inhibitors against Cryptococcus” (Antimicrobial Agents and Chemotherapy, 2018):
Like-named read-outs stand apart in the source and are kept apart here.

Legend:
[1] = system: C. neoformans strain H99; assay: Murine cryptococcal meningitis model with ABT, dose-response study; assay type: in vivo, Cryptococcus neoformans; details: control animals with daily 100-mg/kg ABT without an APX compound
Protocol: A dose-response study was performed with APX2096 and APX2097 to confirm the observed activity. In this study, QD doses of 7.5, 20, and 60 mg/kg were evaluated in conjunction with the administration of ABT. A 60-mg/kg dose QD without ABT was also evaluated as a control.
FIG 3 Dose-response of APX2096 and APX2097 in a murine model of cryptococcal meningitis in conjunction with ABT administration. ABT at 100 mg/kg was administered orally to male CD-1 mice at 2 h prior to each APX compound dose. Mice were injected with 4.8 × 10^4 CFU C. neoformans strain H99 per mouse via the lateral tail vein at time zero. Treatment with the APX compounds was initiated at 1 h postinfection by i.p. administration and continued for 7 days, with 100-mg/kg ABT being administered orally 2 h prior to each APX compound dose. The correction factors for prodrug potencies versus the potencies of the active moieties were similar enough such that the same factor (1.3) was used for all APX compounds. Fungal burden data were log10 transformed and evaluated using Kruskal-Wallis tests with Dunn's multiple-comparison test for post hoc analysis (Prism software, v5; GraphPad Software, Inc., San Diego, CA). […] A P value of ≤0.05 was considered statistically significant (*, P ≤ 0.05; **, P ≤ 0.01; ***, P ≤ 0.001). The 95% confidence interval (CI) is presented.
C. neoformans strain H99 was grown in yeast extract-peptone-dextrose broth at 30°C on a shaker (220 rpm) for 24 h, centrifuged (1,980 relative centrifugal force), and washed twice in phosphate-buffered saline (PBS), resuspended in PBS, and quantified by hemacytometric count. Male CD-1 mice were infected with ∼5 × 10^4 CFU per mouse via lateral tail vein injection of 100 μl. Mice were weighed, and treatment was begun within 1 h after infection. Treatments were administered daily for 7 days. Mice were weighed daily and observed for acute and chronic adverse symptoms. Mice were sacrificed on day 8, and the brain and left lung were homogenized and cultured for quantitative determination of the tissue burden (number of CFU per gram of tissue). Tissues were homogenized for 25 s in 1 ml phosphate-buffered saline using two 6.5-mm steel beads and a Mini-Beadbeater 16 apparatus (Biospec Products, Inc., Bartlesville, OK) and serially diluted in 10-fold steps. Aliquots (100 μl) of homogenate were plated and incubated for 3 to 7 days at 37°C. Fungal burden data were log10 transformed and evaluated using Kruskal-Wallis tests with Dunn's multiple-comparison test for post hoc analysis (Prism software, v5; GraphPad Software, Inc., San Diego, CA). A P value of ≤0.05 was considered statistically significant.

[2] = system: C. gattii; assay: Broth microdilution susceptibility testing (CLSI M27-A3); assay type: cell-based; details: Cryptococcus gattii
Source text: (§1) C. neoformans strains H99, DUMC 118.00, and DUMC 158.03 and C. gattii strains R272 and RSA-MW-3515 were obtained from Duke University. C. albicans 90028, A. fumigatus MYA3626, C. neoformans 14116, C. neoformans 76484, and the pathogenic Cryptococcus reference strains panel (ATCC MP-11) were obtained from the American Type Culture Collection (ATCC; Manassas, VA, USA). The ATCC MP-11 panel consists of strains representing eight molecular types and three subtypes of C. neoformans and C. gattii.
(§2) To establish the antimicrobial activity of the APX001A analogs, broth microdilution susceptibility testing was performed according to Clinical and Laboratory Standards Institute (CLSI) guidelines M27-A3 ([47]) for yeasts and M38-A2 for molds ([48]). APX001A and analogs were first diluted in DMSO to obtain intermediate dilutions. These were further diluted in microtiter plates to obtain a final concentration of 2 to 0.002 μg/ml. One microliter of DMSO was added to the no-drug control wells. The solutions were mixed on a plate shaker for 10 min, and the plates were incubated at 35°C for 40 to 48 h (C. albicans, A. fumigatus) and 72 h (C. neoformans). The minimum concentration that led to a 50% reduction in fungal growth compared to that for the control (determined with the aid of a reading mirror) was determined as the MIC for C. albicans and C. neoformans. The minimum concentration that led to the shortening of hyphae compared to the hyphal growth in DMSO control wells was determined as the minimum effective concentration (MEC) for A. fumigatus (as read for the echinocandins). The use of the MIC and MEC endpoints for APX001A (formerly E1210) against yeasts and molds, respectively, has been described previously ([19][–][21]). For the cryptococcal synergy studies, APX001A and APX2020 MIC values were read at 50% inhibition.

[3] = system: C. neoformans; assay: as above; assay type: cell-based, Cryptococcus neoformans; details: for MIC: Cryptococcus neoformans
Source text: as §1, §2

[4] = system: FLC-susceptible and FLC-nonsusceptible/resistant strains of C. neoformans and C. gattii; assay: Broth microdilution, summary over the 18-strain Cryptococcus collection; assay type: cell-based, Cryptococcus neoformans and Cryptococcus gattii; details: for MIC90 / MIC: 18 strains of C. neoformans and C. gattii; for MIC: read-out: Geometric mean MIC
Protocol: as §2, with “The minimum concentration that led to the shortening of hyphae compared to the hyphal growth in DMSO control wells was determined as the minimum effective concentration (MEC) for A. fumigatus (as read for the echinocandins).” left out

[5] = system: C. albicans 90028; assay: Broth microdilution susceptibility testing (CLSI M27-A3); assay type: cell-based, Candida albicans; details: Candida albicans, 90028; read-out: MIC, C. albicans 90028
Source text: as §1, §2

[6] = system: A. fumigatus MYA3626; assay: Broth microdilution susceptibility testing for molds (CLSI M38-A2); assay type: cell-based; details: Aspergillus fumigatus, MYA3626; read-out: MIC or MEC for A. fumigatus MYA3626
Source text: as §1, §2

[7] = Single-dose mouse pharmacokinetics of prodrugs with or without ABT; assay type: in vivo; details: for Ratio of AUC with ABT/AUC without ABT, i.p. dosing / Ratio of AUC with ABT/AUC without ABT, p.o. dosing: 26 mg/kg prodrug; for AUC: male, CD-1, mouse, plasma, 26 mg/kg
Protocol: The area under the curve (AUC) was calculated from time zero to the time of the last measurable concentration. The active metabolite concentrations in plasma (APX001A, APX2039, APX2020, and APX2041) were determined by liquid chromatography-tandem mass spectrometry. PK parameters were determined using Phoenix WinNonlin (v7.0) software and a noncompartmental model.

[8] = C. gattii isolate MYA-4093, read-out: MIC
[9] = C. gattii isolate MYA-4094, read-out: MIC
[10] = C. gattii isolate MYA-4560 (first listing, r17), read-out: MIC
[11] = C. gattii isolate MYA-4560 (second listing, r21), read-out: MIC
[12] = C. gattii isolate MYA-4561, read-out: MIC
[13] = C. gattii isolate MYA-4562, read-out: MIC
[14] = C. gattii isolate MYA-4563, read-out: MIC
[15] = C. gattii isolate MYA-4877, read-out: MIC
[16] = C. gattii isolate RSA-MW-3615 (FLC resistant), read-out: MIC
[17] = Table 1, 50% growth inhibition for FLC, caspofungin and APX compounds, 100% for AMB, read-out: MIC, C. gattii WM276
[18] = 72 h, Table 1, 50% growth inhibition for FLC, caspofungin and APX compounds, 100% for AMB, 72 h, read-out: MIC, C. neoformans H99
[19] = C. neoformans isolate 14116, read-out: MIC
[20] = C. neoformans isolate 76484, read-out: MIC
[21] = C. neoformans isolate DUMC 118.00 (FLC resistant), read-out: MIC
[22] = C. neoformans isolate DUMC 158.03 (FLC resistant), read-out: MIC
[23] = C. neoformans isolate MYA-4564, read-out: MIC
[24] = C. neoformans isolate MYA-4565, read-out: MIC
[25] = C. neoformans isolate MYA-4566, read-out: MIC
[26] = C. neoformans isolate MYA-4567, read-out: MIC
[27] = Table 2, C. neoformans isolate H99, read-out: MIC
[28] = intraperitoneal, AUC of analyte after 26 mg/kg prodrug, 100 mg/kg ABT orally 2 h before, read-out: Avg AUC resulting from 26-mg/kg dose, i.p. dosing + ABT
[29] = ip, AUC of analyte after 26 mg/kg of the corresponding prodrug, male CD-1 mice, no ABT, read-out: Avg AUC resulting from 26-mg/kg dose, i.p. dosing
[30] = po, AUC of analyte after 26 mg/kg prodrug, 100 mg/kg ABT orally 2 h before, read-out: Avg AUC resulting from 26-mg/kg dose, p.o. dosing + ABT
[31] = po, AUC of analyte in plasma after 26 mg/kg of the corresponding prodrug, male CD-1 mice, no ABT, read-out: Avg AUC resulting from 26-mg/kg dose, p.o. dosing

Q: Which “mean counts in brain tissue” value [1] does the source give for `Nn1nnc2ccccc21` [ABT, 1-Aminobenzotriazole, reference compound] here?
A: 8.07 ± 0.28 log10 CFU/g

Q: And the “mean counts in lung tissue” value [1]?
A: 7.04 ± 0.34 log10 CFU/g

Q: With `Nc1ncccc1-c1cc(Cc2ccc(Oc3cccc(F)n3)cc2)no1` [APX2039] as the compound, how does the MIC [2, 8] read?
A: 0.016 µg/mL

Q: What about the MIC [2, 9] of the same compound?
A: 0.016 µg/mL

Q: And the MIC [2, 10]?
A: 0.008 µg/mL

Q: What about the MIC [2, 11] of the same compound?
A: 0.008 µg/mL

Q: And the MIC [2, 12]?
A: 0.016 µg/mL

Q: And the MIC [2, 13]?
A: 0.016 µg/mL

Q: And the MIC [2, 14]?
A: 0.016 µg/mL

Q: And the MIC [2, 15]?
A: 0.008 µg/mL

Q: And the MIC [2, 16]?
A: 0.004 µg/mL

Q: What about the MIC [2, 17] of the same compound?
A: 0.004 µg/mL

Q: And the MIC [3, 18]?
A: 0.008 µg/mL

Q: And the MIC [3, 19]?
A: 0.004 µg/mL

Q: What about the MIC [3, 20] of the same compound?
A: 0.004 µg/mL

Q: And the MIC [3, 21]?
A: 0.016 µg/mL

Q: What about the MIC [3, 22] of the same compound?
A: 0.031 µg/mL

Q: What about the MIC [3, 23] of the same compound?
A: 0.004 µg/mL

Q: What about the MIC [3, 24] of the same compound?
A: 0.031 µg/mL

Q: And the MIC [3, 25]?
A: 0.008 µg/mL

Q: What about the MIC [3, 26] of the same compound?
A: 0.016 µg/mL

Q: And the MIC [3, 27]?
A: 0.004 µg/mL

Q: What about the “fold improved anti-C. neoformans H99 activity vs APX001A” value ([3]; from MIC values of Table 1) of the same compound?
A: 32 fold

Q: And the MIC90 [4]?
A: 0.031 µg/mL

Q: What about the MIC [4] of the same compound?
A: 0.01 µg/mL

Q: What about the “fold lower MIC values than APX001A versus Cryptococcus” value ([4]; Table 1 strains H99 and WM276) of the same compound?
A: 32 fold

Q: And the MIC [5]?
A: 0.031 µg/mL

Q: What about the MIC [6] of the same compound?
A: 0.125 µg/mL

Q: And the “Ratio of AUC with ABT/AUC without ABT, i.p. dosing” value [7]?
A: 8.3

Q: And the “Ratio of AUC with ABT/AUC without ABT, p.o. dosing” value [7]?
A: 8.6

Q: What about the AUC [7, 28] of the same compound?
A: 97200 ± 12600 ng·h/mL

Q: What about the AUC [7, 29] of the same compound?
A: 11800 ± 1830 ng·h/mL

Q: And the AUC [7, 30]?
A: 91300 ± 20800 ng·h/mL

Q: What about the AUC [7, 31] of the same compound?
A: 10700 ± 480 ng·h/mL

Q: What about the “fold higher exposure than the three other compounds” value ([7]; oral administration of prodrug with ABT) of the same compound?
A: approximately 2 fold

Q: What about the “fold higher AUC than the other compounds” value ([7]; prodrugs administered i.p.) of the same compound?
A: approximately 2 fold

Q: What does the source list for `Nc1ncccc1-c1cc(Cc2ccc(OCc3ccccc3)nc2)no1` [APX2041]?
A: MIC [2, 8]: 0.125 µg/mL; MIC [2, 9]: 0.063 µg/mL; MIC [2, 10]: 0.016 µg/mL; MIC [2, 11]: 0.016 µg/mL; MIC [2, 12]: 0.031 µg/mL; MIC [2, 13]: 0.031 µg/mL; MIC [2, 14]: 0.031 µg/mL; MIC [2, 15]: 0.016 µg/mL; MIC [2, 16]: 0.016 µg/mL; MIC [2, 17]: 0.016 µg/mL; MIC [3, 18]: 0.031 µg/mL; MIC [3, 19]: 0.016 µg/mL; MIC [3, 20]: 0.016 µg/mL; MIC [3, 21]: 0.063 µg/mL; MIC [3, 22]: 0.125 µg/mL; MIC [3, 23]: 0.016 µg/mL; MIC [3, 24]: 0.125 µg/mL; MIC [3, 25]: 0.063 µg/mL; MIC [3, 26]: 0.031 µg/mL; MIC [3, 27]: 0.031 µg/mL; MIC90 [4]: 0.125 µg/mL; MIC [4]: 0.034 µg/mL; MIC [5]: 0.031 µg/mL; MIC [6]: 0.016 µg/mL; Ratio of AUC with ABT/AUC without ABT, i.p. dosing [7]: 15.5; Ratio of AUC with ABT/AUC without ABT, p.o. dosing [7]: 14.3; AUC [7, 28]: 72600 ± 9070 ng·h/mL; AUC [7, 29]: 4680 ± 730 ng·h/mL; AUC [7, 30]: 49900 ± 10300 ng·h/mL; AUC [7, 31]: 3490 ± 270 ng·h/mL
